Read-outs that look alike come from different tables or passages of the source.
Legend:
TAS1R2/TAS1R3 = target: T1, TAS1R2/TAS1R3 (Homo sapiens, UniProt Q7RTX0+Q8TE23); assay: Calcium mobilization assay, HEK293T-Gα16gust44 cells expressing TAS1R2/TAS1R3; type: cell-based
T1 construct: we performed functional expression of the full-length heterodimeric sweet taste TAS1R2/TAS1R3 receptor using HEK293-derived cells; expressed in transfected cells; host or cells: HEK293T-Gα16gust44 cells transfected with pcDNA6-TAS1R2 and pcDNA4-TAS1R3
T1 sequence (Q8TE23 20-839): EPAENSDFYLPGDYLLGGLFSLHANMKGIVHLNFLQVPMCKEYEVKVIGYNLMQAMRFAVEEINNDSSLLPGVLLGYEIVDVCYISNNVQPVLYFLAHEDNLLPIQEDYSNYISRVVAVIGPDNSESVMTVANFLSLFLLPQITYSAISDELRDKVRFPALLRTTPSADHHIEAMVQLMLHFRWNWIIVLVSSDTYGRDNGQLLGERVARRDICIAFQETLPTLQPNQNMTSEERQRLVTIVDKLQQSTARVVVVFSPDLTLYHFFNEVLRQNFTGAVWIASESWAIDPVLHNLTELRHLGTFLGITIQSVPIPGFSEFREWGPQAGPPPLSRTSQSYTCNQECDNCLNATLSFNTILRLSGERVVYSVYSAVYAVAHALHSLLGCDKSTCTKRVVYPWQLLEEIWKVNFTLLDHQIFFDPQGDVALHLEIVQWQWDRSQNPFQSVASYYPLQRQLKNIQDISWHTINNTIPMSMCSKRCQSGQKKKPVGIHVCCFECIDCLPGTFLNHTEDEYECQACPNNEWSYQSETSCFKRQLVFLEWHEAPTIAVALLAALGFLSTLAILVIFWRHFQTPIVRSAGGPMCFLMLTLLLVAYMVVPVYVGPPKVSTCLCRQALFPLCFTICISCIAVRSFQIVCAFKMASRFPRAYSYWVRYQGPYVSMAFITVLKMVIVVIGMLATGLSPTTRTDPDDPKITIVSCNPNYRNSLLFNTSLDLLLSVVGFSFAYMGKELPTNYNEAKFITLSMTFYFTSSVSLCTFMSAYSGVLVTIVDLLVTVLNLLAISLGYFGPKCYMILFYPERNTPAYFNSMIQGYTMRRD
T1 sequence (Q7RTX0 21-852): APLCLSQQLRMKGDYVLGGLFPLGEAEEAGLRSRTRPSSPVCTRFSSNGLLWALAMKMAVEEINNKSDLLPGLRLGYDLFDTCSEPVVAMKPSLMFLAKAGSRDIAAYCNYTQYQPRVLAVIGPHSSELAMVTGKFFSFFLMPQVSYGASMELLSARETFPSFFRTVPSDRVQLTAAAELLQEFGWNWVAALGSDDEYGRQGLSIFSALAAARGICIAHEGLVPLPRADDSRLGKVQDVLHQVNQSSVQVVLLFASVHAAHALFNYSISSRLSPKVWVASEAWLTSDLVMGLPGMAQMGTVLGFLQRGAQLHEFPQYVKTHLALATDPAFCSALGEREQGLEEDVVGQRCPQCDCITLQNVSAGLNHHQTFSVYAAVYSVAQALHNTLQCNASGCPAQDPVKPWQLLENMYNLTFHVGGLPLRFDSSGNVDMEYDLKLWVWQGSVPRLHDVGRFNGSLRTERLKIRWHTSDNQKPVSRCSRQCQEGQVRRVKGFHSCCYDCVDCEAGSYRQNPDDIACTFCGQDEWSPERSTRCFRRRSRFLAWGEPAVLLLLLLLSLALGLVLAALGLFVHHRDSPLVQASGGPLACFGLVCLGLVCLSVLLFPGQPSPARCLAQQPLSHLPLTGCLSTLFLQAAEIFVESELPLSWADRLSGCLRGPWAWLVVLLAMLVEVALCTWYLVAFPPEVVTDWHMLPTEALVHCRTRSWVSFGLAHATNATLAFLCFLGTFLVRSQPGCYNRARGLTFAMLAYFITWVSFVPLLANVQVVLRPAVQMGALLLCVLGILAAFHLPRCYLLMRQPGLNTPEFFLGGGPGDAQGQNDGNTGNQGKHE
Experimental: (§1) The synthetic cDNA optimized for human TAS1R2 and TAS1R3 expression was cloned into the pcDNA6-myc-HisA and pcDNA4-myc-HisA vectors, generating the pcDNA6-TAS1R2 and pcDNA4-TAS1R3 plasmids, respectively (Genewiz).
(§2) The stable HEK293T-Gα16gust44 cells were constructed by stable transfection of pcDNA3.1/Hygro-Gα16gust44 plasmid into HEK293T cells using Lipofectamine 2000 (Invitrogen). After 48 h, the cells were selected with 400 μg/mL hygromycin for 2–3 weeks. Thirty individual hygromycin-resistant colonies were expanded and screened for functional expression after transient co-transfection with pcDNA6-TAS1R2 and pcDNA4-TAS1R3 and measurement of calcium responses to sucralose. In the same way, clone selection was done under zeocin selection (250 μg/mL) to generate a stable HEK293T-Gα16gust44-TAS1R3 cell line for further calcium mobilization assays.
(§3) Forty-eight hours before the assay, HEK293T-Gα16gust44 or HEK293T-Gα16gust44-TAS1R3 cells were plated (4 × 10^4 cells/well) on poly-D-lysine-coated 96-well plates. Twenty-four hours later, cells were transiently transfected with pcDNA6-TAS1R2 and pcDNA4-TAS1R3 with Lipofectamine 2000 according to the manufacturer's instructions. As a negative control, HEK293T cells were mock-transfected with the empty expression vector. […] The fluorescence intensity was measured for 90 s after the addition of the compounds. […] All concentration-receptor combinations were measured in triplicate, and each experiment was repeated at least four times. The Ca^2+ changes are expressed as fractional changes in fluorescence light intensity: ΔF/F0 = (F—F0)/F0, where F is the fluorescence light intensity at each point and F0 is the value of emitted fluorescent light before the stimulus application. For the calculation of dose-response relationships, the changes in fluorescence upon stimulus application were averaged, mock-subtracted and baseline-corrected. The resulting dose-response data were fitted using a four-parameter logistic equation. The half-maximal effective concentrations (EC50 values) were calculated using SigmaPlot software.

TAS1R3 = target: T2, TAS1R3 (Homo sapiens, UniProt Q7RTX0); assay: Calcium mobilization assay, HEK293T-Gα16gust44 cells stably expressing TAS1R3 alone; type: cell-based
T2 construct: we performed functional expression of the full-length heterodimeric sweet taste TAS1R2/TAS1R3 receptor using HEK293-derived cells; expressed in transfected cells
T2 sequence (Q7RTX0 21-852): T1 sequence (Q7RTX0 21-852)
Experimental: as §1, §2, §3

TAS1R1-VFT = target: T3, TAS1R1-VFT (Homo sapiens, UniProt Q7RTX1); assay: Ligand binding by intrinsic tryptophan fluorescence, TAS1R1-VFT
T3 construct: followed by TAS1R1-VFT (Phe21-Ser495) or TAS1R2-VFT (Ala22-Ser493) and a second His6-tag; His6-tag (thrombin-cleavable) (N); made in house
T3 sequence (Q7RTX1 21-495): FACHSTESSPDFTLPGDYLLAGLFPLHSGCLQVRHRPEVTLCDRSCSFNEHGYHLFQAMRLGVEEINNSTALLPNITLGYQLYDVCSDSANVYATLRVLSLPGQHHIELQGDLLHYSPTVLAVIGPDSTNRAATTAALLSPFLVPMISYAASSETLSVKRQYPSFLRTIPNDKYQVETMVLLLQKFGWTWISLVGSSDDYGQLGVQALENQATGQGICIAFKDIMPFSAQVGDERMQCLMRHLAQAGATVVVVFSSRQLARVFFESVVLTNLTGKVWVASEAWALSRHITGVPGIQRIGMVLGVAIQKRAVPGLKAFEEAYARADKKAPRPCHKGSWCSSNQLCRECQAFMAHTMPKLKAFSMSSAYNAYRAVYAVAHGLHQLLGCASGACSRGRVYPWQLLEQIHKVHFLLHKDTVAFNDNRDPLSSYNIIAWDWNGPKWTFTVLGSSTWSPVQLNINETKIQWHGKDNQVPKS
Experimental: The intrinsic fluorescence of TAS1R-VFTs was measured using a Cary Eclipse spectrofluorometer (Varian Instruments, Palo Alto, CA, USA) equipped with a Peltier temperature control unit. […] Ligand solutions were freshly prepared in the same buffer. […] The temperature was kept constant at 20 °C. Fluorescence measurements were corrected for dilution, bleaching and nonspecific buffer quenching. Kd values and standard errors were calculated from a plot of the ratio between the fluorescence intensity variation and the maximum of fluorescence intensity variation versus concentration of total ligand, obtained with a standard non-linear regression method and using a one-site saturation ligand binding equation within SigmaPlot software (version 15.0, Grafiti, Palo Alto, CA, USA). […] The Kd values of ligand-receptor interactions were determined using the equation ΔF/ΔFmax = Bmax [L]/(Kd + [L]), where Kd is the apparent dissociation constant, ΔF is the difference between the fluorescence intensity at a given concentration of ligand and the fluorescence intensity in the absence of ligand, ΔFmax is the difference at infinite ligand concentration [L], Bmax is the maximum fluorescence signal, and [L] corresponds to the concentration of ligands. The reported Kd values are the average of six measurements performed on at least three independently refolded protein samples. […]

TAS1R3-VFT = target: T4, TAS1R3-VFT (Homo sapiens, UniProt Q7RTX0); assay: Ligand binding by intrinsic tryptophan fluorescence, TAS1R3-VFT
T4 construct: pET28-TAS1R3-VFT encodes an N-terminal His6-tag followed by TAS1R3-VFT (Ala21-Ser497) and the Strep-tag II; made in house
T4 sequence (Q7RTX0 21-497): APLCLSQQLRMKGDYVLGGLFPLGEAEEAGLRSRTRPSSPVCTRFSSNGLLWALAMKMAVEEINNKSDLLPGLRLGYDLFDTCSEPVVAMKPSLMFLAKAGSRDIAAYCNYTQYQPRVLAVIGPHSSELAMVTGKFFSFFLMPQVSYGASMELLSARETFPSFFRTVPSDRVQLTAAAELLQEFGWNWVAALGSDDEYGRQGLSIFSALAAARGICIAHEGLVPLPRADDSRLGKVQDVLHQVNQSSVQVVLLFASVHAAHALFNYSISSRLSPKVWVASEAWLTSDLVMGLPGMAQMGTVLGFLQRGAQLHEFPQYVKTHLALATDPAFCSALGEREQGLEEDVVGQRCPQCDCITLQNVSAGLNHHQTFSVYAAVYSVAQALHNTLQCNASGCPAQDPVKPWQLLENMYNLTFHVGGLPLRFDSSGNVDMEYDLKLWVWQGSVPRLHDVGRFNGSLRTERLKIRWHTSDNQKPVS
Experimental: The intrinsic fluorescence of TAS1R-VFTs was measured using a Cary Eclipse spectrofluorometer (Varian Instruments, Palo Alto, CA, USA) equipped with a Peltier temperature control unit. […] Ligand solutions were freshly prepared in the same buffer. […] The temperature was kept constant at 20 °C. Fluorescence measurements were corrected for dilution, bleaching and nonspecific buffer quenching. Kd values and standard errors were calculated from a plot of the ratio between the fluorescence intensity variation and the maximum of fluorescence intensity variation versus concentration of total ligand, obtained with a standard non-linear regression method and using a one-site saturation ligand binding equation within SigmaPlot software (version 15.0, Grafiti, Palo Alto, CA, USA). […] The Kd values of ligand-receptor interactions were determined using the equation ΔF/ΔFmax = Bmax [L]/(Kd + [L]), where Kd is the apparent dissociation constant, ΔF is the difference between the fluorescence intensity at a given concentration of ligand and the fluorescence intensity in the absence of ligand, ΔFmax is the difference at infinite ligand concentration [L], Bmax is the maximum fluorescence signal, and [L] corresponds to the concentration of ligands. The reported Kd values are the average of six measurements performed on at least three independently refolded protein samples. All compounds were obtained from Sigma-Aldrich. Statistical analyses: Dunnett's test (p ≤ 0.05) was used to determine the statistical significance between data means.

[1] = sweet compound alone (Fig. 3, IMP series)
[2] = sweet compound alone (Fig. 5c,d, MSG series)

C=C(C)C1CC=C(/C=N/O)CC1 (stereo in doubt) [Perillartine, perillartine]
EC50 (TAS1R2/TAS1R3; [1]): 24 ± 2 µM

[Ca+2].[Cl-].[Cl-] [CaCl2]
EC50 (TAS1R3; CaCl2 alone, TAS1R3 alone): 47000 ± 13000 µM
max (maximal amplitude, ΔF/F0) (TAS1R3; CaCl2 alone, TAS1R3 alone): 0.37
max (maximal amplitude, ΔF/F0) (TAS1R3; CaCl2 in the presence of 10 mM IMP, TAS1R3 alone): 0.17
max (maximal amplitude, ΔF/F0) (TAS1R3; CaCl2 in the presence of 10 mM cyclamate, TAS1R3 alone): 0.14
EC50 (TAS1R2/TAS1R3; CaCl2 alone, TAS1R2/TAS1R3): 28000 ± 3000 µM
max (maximal amplitude, ΔF/F0) (TAS1R2/TAS1R3; CaCl2 alone, TAS1R2/TAS1R3): 0.40
max (maximal amplitude, ΔF/F0) (TAS1R2/TAS1R3; CaCl2 in the presence of 10 mM IMP, TAS1R2/TAS1R3): 0.28
max (maximal amplitude, ΔF/F0) (TAS1R2/TAS1R3; CaCl2 in the presence of 10 mM cyclamate, TAS1R2/TAS1R3): 0.19

O=S(=O)(O)NC1CCCCC1 [Cyclamate, cyclamate]
amplitude of the maximum calcium-induced response of TAS1R3 reduced to (TAS1R3; modulator at 10 mM, CaCl2 stimulation): ~62%
EC50 (TAS1R2/TAS1R3; [1]): 2310 ± 954 µM

N[C@H](CCC(=O)O)C(=O)O [D-Glu, D-glutamate]
impact on the fluorescence intensity of TAS1R1-VFT (TAS1R1-VFT; negative control): no significant impact
Kd TAS1R3-VFT (TAS1R3-VFT; ligand alone, absence of IMP, mean ± SEM, 20 °C, pH 8.0): nb
impact on the fluorescence intensity of TAS1R3-VFT (TAS1R3-VFT; negative control): no significant impact

N[C@@H](CC(=O)O)C(=O)O [L-Asp, L-aspartate]
Kd (TAS1R1-VFT): 0.21 ± 0.06 µM
Kd (TAS1R3-VFT; read-out: Kd TAS1R3-VFT): 1.18 ± 0.33 µM

N[C@@H](CCC(=O)O)C(=O)O [L-Glu, L-glutamate]
Kd (TAS1R3-VFT): 0.75 ± 0.2 µM

COc1ccc(CCC(=O)c2c(O)cc(O[C@@H]3O[C@H](CO)[C@@H](O)[C@H](O)[C@H]3O[C@@H]3O[C@@H](C)[C@H](O)[C@@H](O)[C@H]3O)cc2O)cc1O [NHDC, neohesperidine dihydrochalcone]
EC50 (TAS1R2/TAS1R3; [1]): 41 ± 29 µM

COC(=O)[C@H](Cc1ccccc1)NC(=O)[C@H](CC(=O)O)NCCC(C)(C)C [Neotame, neotame]
EC50 (TAS1R2/TAS1R3; [1]): 0.97 ± 0.12 µM
EC50 (TAS1R2/TAS1R3; sweet compound alone (Fig. 5a,b, GMP series)): 0.3 ± 0.08 µM
EC50 (TAS1R2/TAS1R3; [2]): 1.09 ± 0.16 µM

OC[C@H]1O[C@H](O[C@]2(CCl)O[C@H](CCl)[C@@H](O)[C@@H]2O)[C@H](O)[C@@H](O)[C@H]1Cl [Sucralose, sucralose]
EC50 (TAS1R2/TAS1R3; [1]): 57 ± 13 µM
EC50 (TAS1R2/TAS1R3; [2]): 56 ± 6 µM
decrease in EC50 values by IMP (synergistic effect) (TAS1R2/TAS1R3; sweetener with IMP vs sweetener alone): 3 fold

— article PMC11872639 (Food Chemistry: Molecular Sciences, 2025)
